Usually Ki stands for a measure of affinity in units of concentration, obtained from inhibition or displacement. High values mean a looser hold on the target, low ones a stronger hold on the target.

The experiment has as its target T1, CgNce103 (Nakaseomyces glabratus, UniProt Q6FTL6).
T1 construct: gene NCE103; enzyme preparation, host and tags not described
T1 sequence (Q6FTL6 1-219): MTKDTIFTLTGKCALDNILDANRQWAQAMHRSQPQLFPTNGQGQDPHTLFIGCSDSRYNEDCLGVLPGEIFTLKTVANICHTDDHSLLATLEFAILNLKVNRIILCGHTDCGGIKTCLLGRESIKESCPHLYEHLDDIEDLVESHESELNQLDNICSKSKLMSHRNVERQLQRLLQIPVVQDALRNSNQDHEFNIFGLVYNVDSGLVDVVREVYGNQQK
Kind of experiment: stopped-flow CO2 hydration assay. Format: biochemical.
For `NS(=O)(=O)c1ccc(NC(=S)N/N=C2\C(=O)Nc3ccc(OC(F)(F)F)cc32)cc1` [4c, 1H-indole-2,3-dione 3-[N-(4-sulfamoylphenyl)thiosemicarbazone], R = 5-OCF3], the affinity, expressed as Ki, was 53.7 nM.
Consider `NS(=O)(=O)c1ccc(NC(=S)N/N=C2\C(=O)Nc3ccc(F)cc32)cc1` [4d, 1H-indole-2,3-dione 3-[N-(4-sulfamoylphenyl)thiosemicarbazone], R = 5-F], for which the Ki was 34.7 nM.
Take `NS(=O)(=O)c1ccc(NC(=S)N/N=C2\C(=O)Nc3c(Cl)cc(Cl)cc32)cc1` [4l, 1H-indole-2,3-dione 3-[N-(4-sulfamoylphenyl)thiosemicarbazone], R = 5,7-diCl]: the inhibition constant (Ki) worked out at 6.4 nM.
Take `NS(=O)(=O)c1ccc(NC(=S)N/N=C2\C(=O)Nc3c(Br)cc(Br)cc32)cc1` [4m, 1H-indole-2,3-dione 3-[N-(4-sulfamoylphenyl)thiosemicarbazone], R = 5,7-diBr]: the Ki was found to be 46.6 nM.
Take `NS(=O)(=O)c1ccc(NC(=S)N/N=C2\C(=O)Nc3c(F)cccc32)cc1` [4j, 1H-indole-2,3-dione 3-[N-(4-sulfamoylphenyl)thiosemicarbazone], R = 7-F]: the inhibition constant (Ki) was 15 nM.
`NS(=O)(=O)c1ccc(NC(=S)N/N=C2\C(=O)Nc3ccccc32)cc1` [4a, 1H-indole-2,3-dione 3-[N-(4-sulfamoylphenyl)thiosemicarbazone], R = H]: the inhibitory constant (Ki) amounted to 63.9 nM. Compared with the last molecule, the Ki is about 4.3-fold higher.
For `NS(=O)(=O)c1ccc(NC(=S)N/N=C2\C(=O)Nc3ccc(Cl)cc32)cc1` [4e, 1H-indole-2,3-dione 3-[N-(4-sulfamoylphenyl)thiosemicarbazone], R = 5-Cl] the value was 41.3 nM.
The figure for `NS(=O)(=O)c1ccc(NC(=S)N/N=C2\C(=O)Nc3ccc(Br)cc32)cc1` [4f, 1H-indole-2,3-dione 3-[N-(4-sulfamoylphenyl)thiosemicarbazone], R = 5-Br] is 51.6 nM; for `NS(=O)(=O)c1ccc(NC(=S)N/N=C2\C(=O)Nc3ccc(I)cc32)cc1` [4g, 1H-indole-2,3-dione 3-[N-(4-sulfamoylphenyl)thiosemicarbazone], R = 5-I] it is 19.8 nM; for `NS(=O)(=O)c1ccc(NC(=S)N/N=C2\C(=O)Nc3ccc([N+](=O)[O-])cc32)cc1` [4i, 1H-indole-2,3-dione 3-[N-(4-sulfamoylphenyl)thiosemicarbazone], R = 5-NO2] it is 42.1 nM.
In turn, `NS(=O)(=O)c1ccc(NC(=S)N/N=C2\C(=O)Nc3ccc(S(=O)(=O)O)cc32)cc1` [4h, 1H-indole-2,3-dione 3-[N-(4-sulfamoylphenyl)thiosemicarbazone], R = 5-SO3Na] came in with a Ki of 19.8 nM.
Turning to `NS(=O)(=O)c1ccc(NC(=S)N/N=C2\C(=O)Nc3c(Cl)cccc32)cc1` [4k, 1H-indole-2,3-dione 3-[N-(4-sulfamoylphenyl)thiosemicarbazone], R = 7-Cl], the inhibition constant Ki was found to be 12.8 nM.
The molecule `Cc1ccc2c(c1)/C(=N/NC(=S)Nc1ccc(S(N)(=O)=O)cc1)C(=O)N2` [4b, 1H-indole-2,3-dione 3-[N-(4-sulfamoylphenyl)thiosemicarbazone], R = 5-CH3] had a Ki of 54 nM.

For the origin of these results see publication PMC6366411, “Novel 2-indolinones containing a sulfonamide moiety as selective inhibitors of candida β-carbonic anhydrase enzyme” (Journal of Enzyme Inhibition and Medicinal Chemistry, 2019).
